Test system: (single deposited) (rabbit) B-cells
Experiment: Co-cultivation of single deposited B-cells with EL-4 B5 feeder cells, quantification of IgG in supernatant by ELISA
Assay type: cell-based
Description: Generally, the 96-well multi well plate in which the co-cultivation was performed was centrifuged after seven days of co-cultivation at 300×g for 5 min. 150 μl supernatant was removed and diluted at a ratio of 2:1 with PBS in a second 96-well multi well plate. The antibody was used at a concentration of 50 ng/ml. If the OD was or exceeded 1 after an incubation time of 5 min. a dilution series of from 0.8 to 108 ng/ml IgG was tested.
Specifically, a mixture of 0.5 μg/ml of biotinylated mouse anti-rabbit IgG antibody (Sigma-Aldrich) and 0.35 μg/ml anti-rabbit IgG HRP conjugate (Sigma-Aldrich) was transferred to 384 well streptavidin coated microtiter plates (MicroCoat Biotechnologie GmbH). Dilutions of B-cell supernatants in PBS supplemented with 0.5% BSA and 0.05% Tween®-20 were added and incubated for 90 min at RT. After repeated washing (6×) with PBST (phosphate buffered saline with 0.2% Tween®-20) buffer the plates were developed with BM Blue® HRP substrate solution and color formation was measured by absorbance at 370 nm. A commercial rabbit IgG (Sigma-Aldrich) was used as a calibration standard.
Single cell sorted B-cells were cultured in 96-well plates with 200 μl/well EL-4 B5 medium with Pansorbin Cells (SAC) (Calbiochem (Merck), Darmstadt, Deutschland), EL-4 B5 cells (5×10^4/well) and rabbit thymocyte supernatant (TSN) or cytokine mix (CM) with PMA, respectively, for 7 days at 37° C. in an atmosphere of 5% CO2 in the incubator. B-cell culture supernatants were removed for screening and the cells harvested immediately for variable region gene cloning or frozen at −80° C. in 100 μl RLT buffer (Qiagen, Hilden, Germany).

[1] = PMA alone, in the absence of cytokines and interleukins

With `CCCCCCCCCCCCCC(=O)O[C@@H]1[C@@H](C)[C@@]2(O)[C@@H](C=C(CO)C[C@]3(O)C(=O)C(C)=C[C@@H]23)[C@@H]2C(C)(C)[C@]12OC(C)=O` [PMA, (1aR,1bS,4aR,7aS,7bS,8R,9R,9aS)-9a-(acetyloxy)-4a,7b-dihydroxy-3-(hydroxymethyl)-1,1,6,8-tetramethyl-5-oxo-1a,1b,4,4a,5,7a,7b,8,9,9a-decahydro-H-cyclopropa[3,4]benzo[1,2-e]azulen-9-yl myristate] the “IgG+ wells [% total]” value (PMA 0.002 ng/ml, 0.1×CM) was “+”, the “IgG+ wells [% total]” value (PMA 0.011 ng/ml, 0.1×CM) was “+” and the “productivity IgG+ [μg/ml]” value (PMA 0.011 ng/ml, 0.1×CM) was “+”. The “IgG+ wells [% total]” value (PMA 0.054 ng/ml, 0.1×CM) was “++++”, the “productivity IgG+ [μg/ml]” value (PMA 0.054 ng/ml, 0.1×CM) was “+++” and the “Average IgG productivity” value (PMA 0.095 ng/ml, CM 1x) was 1.390 µg/mL. The “Number of IgG positive wells [% of total]” value (from here on “Number … [% of total]”) (PMA 0.095 ng/ml, CM 1x) was 38.1 % of total, the “productivity IgG+ [μg/ml]” value (PMA 0.127 ng/ml, 0.032×CM) was “+” and the “IgG+ wells [% total]” value (PMA 0.127 ng/ml, 0.1×CM) was “++”. The “productivity IgG+ [μg/ml]” value (PMA 0.127 ng/ml, 0.1×CM) was “++++”, the “IgG+ wells [% total]” value (PMA 0.225 ng/ml, 0.1×CM) was “+++++” and the “productivity IgG+ [μg/ml]” value (PMA 0.225 ng/ml, 0.1×CM) was “+++++”. The “IgG+ wells [% total]” value (PMA 0.3 ng/ml, 0.032×CM) was “++++”, the “productivity IgG+ [μg/ml]” value (PMA 0.3 ng/ml, 0.032×CM) was “+++” and the “IgG+ wells [% total]” value (PMA 0.3 ng/ml, 0.1×CM) was “+++++”. The “productivity IgG+ [μg/ml]” value (PMA 0.3 ng/ml, 0.1×CM) was “+++++”, the “Average IgG productivity” value (PMA 0.3 ng/ml, CM 0.01x) was 1.931 µg/mL and the “Number … [% of total]” value (PMA 0.3 ng/ml, CM 0.01x) was 69.0 % of total. The “Average IgG productivity” value (PMA 0.3 ng/ml, CM 0.032x) was 3.476 µg/mL, the “Number … [% of total]” value (PMA 0.3 ng/ml, CM 0.032x) was 70.2 % of total and the “Average IgG productivity” value (PMA 0.3 ng/ml, CM 0.1x) was 4.450 µg/mL. The “Number … [% of total]” value (PMA 0.3 ng/ml, CM 0.1x) was 67.9 % of total, the “Average IgG productivity” value (PMA 0.3 ng/ml, CM 0.32x) was 2.662 µg/mL and the “Number … [% of total]” value (PMA 0.3 ng/ml, CM 0.32x) was 57.1 % of total. The “Average IgG productivity” value (PMA 0.3 ng/ml, CM 1x) was 0.720 µg/mL, the “Number … [% of total]” value (PMA 0.3 ng/ml, CM 1x) was 17.9 % of total and the “IgG+ wells [% total]” value (PMA 0.534 ng/ml, 0.032×CM) was “++”. The “productivity IgG+ [μg/ml]” value (PMA 0.534 ng/ml, 0.032×CM) was “+++”, the “IgG+ wells [% total]” value (PMA 0.534 ng/ml, 0.1×CM) was “+++++” and the “productivity IgG+ [μg/ml]” value (PMA 0.534 ng/ml, 0.1×CM) was “+++”. For the same compound, the “IgG+ wells [% total]” value (PMA 0.712 ng/ml, 0.032×CM) was “++”, the “productivity IgG+ [μg/ml]” value (PMA 0.712 ng/ml, 0.032×CM) was “+++” and the “IgG+ wells [% total]” value (PMA 0.712 ng/ml, 0.1×CM) was “+++”. For the same compound, the “productivity IgG+ [μg/ml]” value (PMA 0.712 ng/ml, 0.1×CM) was “++”, the “IgG+ wells [% total]” value (PMA 0.949 ng/ml, 0.032×CM) was “++++” and the “productivity IgG+ [μg/ml]” value (PMA 0.949 ng/ml, 0.032×CM) was “+++++”. For the same compound, the “Average IgG productivity” value (PMA 0.95 ng/ml, CM 0x) was 1.650 µg/mL, the “Number … [% of total]” value (PMA 0.95 ng/ml, CM 0x) was 28.6 % of total and the “Average IgG productivity” value (PMA 0.95 ng/ml, CM 0.01x) was 4.235 µg/mL. The “Number … [% of total]” value (PMA 0.95 ng/ml, CM 0.01x) was 69.0 % of total, the “Average IgG productivity” value (PMA 0.95 ng/ml, CM 0.032x) was 5.340 µg/mL and the “Number … [% of total]” value (PMA 0.95 ng/ml, CM 0.032x) was 67.9 % of total. For the same compound, the “Average IgG productivity” value (PMA 0.95 ng/ml, CM 0.1x) was 1.623 µg/mL, the “Number … [% of total]” value (PMA 0.95 ng/ml, CM 0.1x) was 50.0 % of total and the “Average IgG productivity” value (PMA 0.95 ng/ml, CM 0.32x) was 0.134 µg/mL. For the same compound, the “Number … [% of total]” value (PMA 0.95 ng/ml, CM 0.32x) was 23.8 % of total, the “Average IgG productivity” value (PMA 0.95 ng/ml, CM 1x) was 0.100 µg/mL and the “Number … [% of total]” value (PMA 0.95 ng/ml, CM 1x) was 8.3 % of total. For the same compound, the “IgG+ wells [% total]” value (PMA 0.95 ng/ml, without CM) was “+”, the “productivity IgG+ [μg/ml]” value (PMA 0.95 ng/ml, without CM) was “+” and the “IgG+ wells [% total]” value (PMA 1.266 ng/ml, 0.032×CM) was “+++”. For the same compound, the “productivity IgG+ [μg/ml]” value (PMA 1.266 ng/ml, 0.032×CM) was “+++++”, the “IgG+ wells [% total]” value (PMA 1.688 ng/ml, 0.032×CM) was “+++++” and the “productivity IgG+ [μg/ml]” value (PMA 1.688 ng/ml, 0.032×CM) was “+++++”. The “IgG+ wells [% total]” value (PMA 1.688 ng/ml, without CM) was “++”, the “productivity IgG+ [μg/ml]” value (PMA 1.688 ng/ml, without CM) was “+++” and the “IgG+ wells [% total]” value (PMA 2.25 ng/ml, 0.032×CM) was “++++”. For the same compound, the “productivity IgG+ [μg/ml]” value (PMA 2.25 ng/ml, 0.032×CM) was “++++”, the “IgG+ wells [% total]” value (PMA 2.251 ng/ml, without CM) was “+++++” and the “productivity IgG+ [μg/ml]” value (PMA 2.251 ng/ml, without CM) was “+++++”. The “Average IgG productivity” value (PMA 3 ng/ml, CM 0.01x) was 3.893 µg/mL, the “Number … [% of total]” value (PMA 3 ng/ml, CM 0.01x) was 69.0 % of total and the “Average IgG productivity” value (PMA 3 ng/ml, CM 0.032x) was 3.480 µg/mL. The “Number … [% of total]” value (PMA 3 ng/ml, CM 0.032x) was 72.6 % of total, the “Average IgG productivity” value (PMA 3 ng/ml, CM 0.1x) was 0.363 µg/mL and the “Number … [% of total]” value (PMA 3 ng/ml, CM 0.1x) was 35.7 % of total. For the same compound, the “Average IgG productivity” value (PMA 3 ng/ml, CM 0.32x) was 0.125 µg/mL, the “Number … [% of total]” value (PMA 3 ng/ml, CM 0.32x) was 13.1 % of total and the “Average IgG productivity” value (PMA 3 ng/ml, CM 1x) was 0.351 µg/mL. For the same compound, the “Number … [% of total]” value (PMA 3 ng/ml, CM 1x) was 13.1 % of total, the “IgG+ wells [% total]” value (PMA 3.999 ng/ml, without CM) was “+++” and the “productivity IgG+ [μg/ml]” value (PMA 3.999 ng/ml, without CM) was “+++”. The “IgG+ wells [% total]” value (PMA 5.331 ng/ml, without CM) was “++++”, the “productivity IgG+ [μg/ml]” value (PMA 5.331 ng/ml, without CM) was “+++++” and the “IgG+ wells [% total]” value (PMA 7.106 ng/ml, without CM) was “+++++”. The “productivity IgG+ [μg/ml]” value (PMA 7.106 ng/ml, without CM) was “++”, the “numbers of IgG positive wells” value [1] was “comparable” and the productivity [1] was “increased”.
